Data: ChEMBL document CHEMBL1131434, “Identification of an opioid kappa receptor subtype-selective N-substituent for (+)-(3R,4R)-dimethyl-4-(3-hydroxyphenyl)piperidine” (J Med Chem, 1998)

Legend:
[1] = target: Kappa-type opioid receptor (Cavia porcellus) (UniProt P41144); experiment: Inhibition against Opioid receptor kappa 1 using selective ligand [3H]U-69593; set-up: concentration or dose not given beside the values; details: concentration not given here
Mu-type opioid receptor [2] = target: T1, Mu-type opioid receptor (Cavia porcellus, UniProt P97266); experiment: Binding affinity determined on Opioid receptor mu 1 in Guinea pig brain membranes using radioligand [3H]DAMGO.; assay type: cell membranes, Membrane
T1 sequence (P97266 whole entry): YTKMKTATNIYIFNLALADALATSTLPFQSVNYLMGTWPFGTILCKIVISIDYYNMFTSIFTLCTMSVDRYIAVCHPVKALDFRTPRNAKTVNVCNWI

[3] = target: T2, Kappa-type opioid receptor (Cavia porcellus, UniProt P41144); experiment: Binding affinity determined on Opioid receptor kappa 1 in Guinea pig brain membranes using radioligand [3H]U-69593; assay type: cell membranes, Membrane
T2 sequence (P41144 whole entry): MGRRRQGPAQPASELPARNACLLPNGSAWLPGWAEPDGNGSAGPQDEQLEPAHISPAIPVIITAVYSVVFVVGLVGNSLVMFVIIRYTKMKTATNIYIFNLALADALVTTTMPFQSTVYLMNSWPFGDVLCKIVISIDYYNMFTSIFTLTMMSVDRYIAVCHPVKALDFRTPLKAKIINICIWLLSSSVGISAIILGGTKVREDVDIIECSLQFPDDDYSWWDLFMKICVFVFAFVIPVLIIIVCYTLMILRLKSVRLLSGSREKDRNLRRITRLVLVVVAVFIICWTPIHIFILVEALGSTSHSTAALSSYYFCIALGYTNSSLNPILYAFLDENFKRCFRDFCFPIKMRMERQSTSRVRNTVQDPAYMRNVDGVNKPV

Mu-type opioid receptor [4] = target: T1, Mu-type opioid receptor; experiment: Inhibition of [35S]GTP-gamma-S, binding from Opioid receptor mu 1 in Guinea pig Caudate stimulated by DAMGO; assay type: functional
[5] = target: T2, Kappa-type opioid receptor; experiment: Inhibition of [35S]GTP-gamma-S, binding from Opioid receptor kappa 1 in Guinea pig Caudate stimulated by U69,593; assay type: functional
Mu-type opioid receptor [6] = target: T1, Mu-type opioid receptor; experiment: Binding affinity determined on Opioid receptor mu 1 in Guinea pig brain membranes using radioligand [3H]DAMGO; assay type: cell membranes, Membrane

Sequence of Kappa-type opioid receptor (Cavia porcellus) (P41144 whole entry): as above

CC1CN(CCN(C)C(=O)CCc2ccc(O)cc2)CCC1(C)c1cccc(O)c1 (configuration not stated)
inhibition [1]: 0%

CCC(C)[C@@H](CN1CCC(C)(c2cccc(O)c2)C(C)C1)NC(=O)CCc1ccc(O)cc1 (some centres not stated)
Ki (Mu-type opioid receptor [2]): 421 nM
Ki [3]: 8.84 nM

CC1CN(C[C@H](Cc2ccccc2)NC(=O)CCc2ccc(O)cc2)CCC1(C)c1cccc(O)c1 (some centres not stated)
Ki (Mu-type opioid receptor [2]): 9.6 nM

CC(CN1CCC(C)(c2cccc(O)c2)C(C)C1)N(C)C(=O)CCc1ccc(O)cc1 (configuration not stated)
inhibition [1]: 1%

CC(C)C(CN1CCC(C)(c2cccc(O)c2)C(C)C1)NC(=O)CCc1ccccc1O (configuration not stated)
inhibition [1]: 25%

CC(C)[C@@H](CN1CC[C@@](C)(c2cccc(O)c2)[C@@H](C)C1)NC(=O)CCc1ccc(O)cc1
inhibition [1]: 71%
Ki (Mu-type opioid receptor [4]): 7.25 nM
Ki [5]: 4.7 nM
Ki (Mu-type opioid receptor [6]): 393 nM
Ki [3]: 6.91 nM

CC(C)C(CN1CCC(C)(c2cccc(O)c2)C(C)C1)NC(=O)CCc1ccc(F)cc1 (configuration not stated)
inhibition [1]: 26%

C[S+](C)[O-]
inhibition [1]: 4%

CC(CN1CCC(C)(c2cccc(O)c2)C(C)C1)NC(=O)CCc1ccc(O)cc1 (configuration not stated)
inhibition [1]: 20%

CC(C)C(CN1CCC(C)(c2cccc(O)c2)C(C)C1)NC(=O)CCc1cccc(O)c1 (configuration not stated)
inhibition [1]: 20%

COc1ccc(CCC(=O)NC(CN2CCC(C)(c3cccc(O)c3)C(C)C2)C(C)C)cc1 (configuration not stated)
inhibition [1]: 16%

Oc1ccc2c3c1O[C@H]1c4[nH]c5c(c4C[C@@]4(O)[C@@H](C2)N(CC2CC2)CC[C@]314)C[C@@]1(O)[C@H]2Cc3ccc(O)c4c3[C@@]1(CCN2CC1CC1)[C@H]5O4 [NORBINALTORPHIMINE]
Ki (Mu-type opioid receptor [4]): 16.7 nM

CC1CN(CC(c2ccccc2)N(C)C(=O)CCc2ccc(O)cc2)CCC1(C)c1cccc(O)c1 (configuration not stated)
inhibition [1]: 7%

CC(C)C(CN1CCC(C)(c2cccc(O)c2)C(C)C1)NC(=O)/C=C/c1ccc(O)cc1 (configuration not stated)
inhibition [1]: 15%

CC1CN(CCNC(=O)CCc2ccc(O)cc2)CCC1(C)c1cccc(O)c1 (configuration not stated)
inhibition [1]: 11%

CC1CN(C[C@@H](NC(=O)CCc2ccc(O)cc2)C2CCCCC2)CCC1(C)c1cccc(O)c1 (some centres not stated)
Ki (Mu-type opioid receptor [2]): 234 nM
Ki [3]: 83.1 nM

CC(C)[C@H](CN1CC[C@@](C)(c2cccc(O)c2)[C@@H](C)C1)NC(=O)CCc1ccc(O)cc1
inhibition [1]: 11%

CC(C)C(CN1CCC(C)(c2cccc(O)c2)C(C)C1)NC(=O)Cc1ccc(O)cc1 (configuration not stated)
inhibition [1]: 6%

CC(C)C[C@@H](CN1CCC(C)(c2cccc(O)c2)C(C)C1)NC(=O)CCc1ccc(O)cc1 (some centres not stated)
Ki (Mu-type opioid receptor [6]): 398 nM

C[C@@H]1CN(C/C=C/c2ccccc2)CC[C@]1(C)c1cccc(O)c1
Ki (Mu-type opioid receptor [4]): 0.039 nM
Ki [5]: 1.04 nM
Ki (Mu-type opioid receptor [6]): 0.74 nM
Ki [3]: 122 nM

CC(C)C(CN1CCC(C)(c2cccc(O)c2)C(C)C1)NC(=O)CCc1ccc(O)c(O)c1 (configuration not stated)
inhibition [1]: 31%

COc1cc(CCC(=O)NC(CN2CCC(C)(c3cccc(O)c3)C(C)C2)C(C)C)ccc1O (configuration not stated)
inhibition [1]: 42%

CC(C)[C@@H](CN1CC[C@@](C)(c2cccc(O)c2)[C@@H](C)C1)NC(=O)CCc1ccccc1
inhibition [1]: 28%
